# Measured values: ChEMBL document CHEMBL4411264, “Methionine-Containing Rhabdopeptide/Xenortide-like Peptides from Heterologous Expression of the Biosynthetic Gene Cluster kj12ABC in Escherichia coli” (J Nat Prod, 2018)
# Square brackets hold non-standard residues; d marks the D form. Peptide text beside a SMILES is read from it. * marks the point of attachment. NHPhenethyl = c1ccc(CCN*)cc1; NMeM = CN[C@@H](CCSC)C(=O)O; NMeV = CN[C@H](C(=O)O)C(C)C
# What was measured:
# Plasmodium falciparum = assay: Antiplasmodial activity against Plasmodium falciparum NF54 erythrocytic stage assessed as reduction in [3H]hypoxanthine incorporation preincubated for 48 hrs followed by [3H]hypoxanthine addition and measured after 24 hrs by liquid scintillation counting method; format: functional, organism-based
# Trypanosoma cruzi = assay: Antiparasitic activity against Trypanosoma cruzi Tulahuen C4 trypomastigotes infected in rat L6 cells after 96 hrs by CPRG/Nonidet reagent based photometric analysis; format: functional, organism-based; details: Tulahuen C4, L6, 96 h
# L6 = assay: Cytotoxicity against rat L6 cells assessed as reduction in cell viability after 72 hrs by Alamar blue staining-based fluorometric analysis; details: L6, 72 h
# [1] = tested on: Trypanosoma brucei rhodesiense; assay: Antitrypanosomal activity against Trypanosoma brucei rhodesiense STIB900 bloodstream forms after 72 hrs by Alamar blue staining-based fluorometric analysis; format: functional, organism-based; details: STIB900, 72 h
# Leishmania donovani = assay: Antileishmanial activity against Leishmania donovani MHOM/ET/67/L82 axenic amastigotes after 72 hrs by alamar blue staining based fluorescence assay; format: functional, organism-based; details: MHOM/ET/67/L82, 72 h
SMILES,IC50 (Plasmodium falciparum) [µM],IC50 (Trypanosoma cruzi) [µM],IC50 [1] [µM],IC50 (L6) [µM],IC50 (Leishmania donovani) [µM]
CN[C@H](C(=O)N[C@H](C(=O)N(C)[C@H](C(=O)N(C)[C@H](C(=O)N(C)[C@H](C(=O)NCCc1ccccc1)C(C)C)C(C)C)C(C)C)C(C)C)C(C)C (H-[NMeV]V[NMeV][NMeV][NMeV]-NHPhenethyl),4.6,26.2,1.4,56.2,> 100
CN[C@H](C(=O)N[C@H](C(=O)N(C)[C@H](C(=O)N(C)[C@@H](CCSC)C(=O)NCCc1ccccc1)C(C)C)C(C)C)C(C)C (H-[NMeV]V[NMeV][NMeM]-NHPhenethyl),10.9,75,12.3,> 100,> 100
CN[C@H](C(=O)N[C@H](C(=O)N(C)[C@H](C(=O)N(C)[C@H](C(=O)N(C)[C@@H](CCSC)C(=O)NCCc1ccccc1)C(C)C)C(C)C)C(C)C)C(C)C (H-[NMeV]V[NMeV][NMeV][NMeM]-NHPhenethyl),6.6,53,4.3,71.2,> 100
COc1cc([C@@H]2c3cc4c(cc3[C@H](O)[C@H]3COC(=O)[C@H]23)OCO4)cc(OC)c1OC [PODOFILOX],,,,0.01,
CN[C@H](C(=O)N[C@H](C(=O)N(C)[C@H](C(=O)N(C)[C@H](C(=O)NCCc1ccccc1)C(C)C)C(C)C)C(C)C)C(C)C (H-[NMeV]V[NMeV][NMeV]-NHPhenethyl),5.3,69.4,10.5,89.1,> 100
CSCC[C@@H](C(=O)N[C@H](C(=O)N(C)[C@H](C(=O)N(C)[C@H](C(=O)NCCc1ccccc1)C(C)C)C(C)C)C(C)C)N(C)C(=O)[C@@H](N)C(C)C (H-V[NMeM]V[NMeV][NMeV]-NHPhenethyl),3.2,14.2,7.3,70.8,18.8
CSCC[C@@H](C(=O)N(C)[C@H](C(=O)N(C)[C@H](C(=O)NCCc1ccccc1)C(C)C)C(C)C)N(C)C(=O)[C@@H](N)C(C)C (H-V[NMeM][NMeV][NMeV]-NHPhenethyl),7.9,62.9,8.5,75.2,> 100

# More lines, in order of falling IC50 (Trypanosoma cruzi), values ahead:
IC50 (Plasmodium falciparum) [µM],IC50 (Trypanosoma cruzi) [µM],IC50 [1] [µM],SMILES,IC50 (L6) [µM],IC50 (Leishmania donovani) [µM]
4.1,25.4,5.7,CN[C@H](C(=O)N[C@H](C(=O)N(C)[C@@H](CCSC)C(=O)N(C)[C@H](C(=O)N(C)[C@H](C(=O)NCCc1ccccc1)C(C)C)C(C)C)C(C)C)C(C)C (H-[NMeV]V[NMeM][NMeV][NMeV]-NHPhenethyl),31.3,> 100
2.3,12.6,2.7,CSCC[C@@H](C(=O)N(C)[C@H](C(=O)N(C)[C@H](C(=O)N(C)[C@H](C(=O)NCCc1ccccc1)C(C)C)C(C)C)C(C)C)N(C)C(=O)[C@@H](N)C(C)C (H-V[NMeM][NMeV][NMeV][NMeV]-NHPhenethyl),23.9,92.3
,2.8,,O=C(Cn1ccnc1[N+](=O)[O-])NCc1ccccc1 [BENZNIDAZOLE],,
